Here are results for 17 compounds from patent US12139492B2 (Endotarget Inc., priority 2021, dated 2024).

Like-named read-outs stand apart in the source and are kept apart here. Some results are limits rather than exact numbers.

Assay [1] relates to JeKo-1 cells. Kind of assay: Antiproliferative effect, MTS cell viability assay, JeKo-1 cells. It counts as cell-based. Particulars: Homo sapiens; JeKo-1 mantle cell lymphoma cells; read-out: IC50 (anti-proliferation) JeKO-1 cells. A digest of the protocol: (§1)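 MTS read-out, A490 of formazan from metabolically active cells; compound 0–10 μM (0, 0.001, 0.01, 0.1, 1, 10 μM), 72 h exposure.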
On the technique in general: Tetrazolium assays rely on reduction of a dye to a coloured formazan, in cell work by metabolically active cells.

Assay [2] deals with BTK (Homo sapiens, UniProt Q06187). Kind of assay: Degradation of BTK protein in Namalwa cells (Western blot; DC50, Dmax). Particulars: for DC50: read-out: DC50 (BTK degradation), concentration giving 50% reduction of BTK expression level, cell line not given; for Dmax: read-out: Dmax (BTK degradation).
The test system of assay [3] is Mino cells. Kind of assay: Antiproliferative effect, MTS cell viability assay, Mino cells. Format: cell-based. The settings on record: Homo sapiens, Mino mantle cell lymphoma cells, read-out: IC50 (anti-proliferation) Mino cells. Put shortly:
as §1

Chain of BTK (Q06187 whole entry): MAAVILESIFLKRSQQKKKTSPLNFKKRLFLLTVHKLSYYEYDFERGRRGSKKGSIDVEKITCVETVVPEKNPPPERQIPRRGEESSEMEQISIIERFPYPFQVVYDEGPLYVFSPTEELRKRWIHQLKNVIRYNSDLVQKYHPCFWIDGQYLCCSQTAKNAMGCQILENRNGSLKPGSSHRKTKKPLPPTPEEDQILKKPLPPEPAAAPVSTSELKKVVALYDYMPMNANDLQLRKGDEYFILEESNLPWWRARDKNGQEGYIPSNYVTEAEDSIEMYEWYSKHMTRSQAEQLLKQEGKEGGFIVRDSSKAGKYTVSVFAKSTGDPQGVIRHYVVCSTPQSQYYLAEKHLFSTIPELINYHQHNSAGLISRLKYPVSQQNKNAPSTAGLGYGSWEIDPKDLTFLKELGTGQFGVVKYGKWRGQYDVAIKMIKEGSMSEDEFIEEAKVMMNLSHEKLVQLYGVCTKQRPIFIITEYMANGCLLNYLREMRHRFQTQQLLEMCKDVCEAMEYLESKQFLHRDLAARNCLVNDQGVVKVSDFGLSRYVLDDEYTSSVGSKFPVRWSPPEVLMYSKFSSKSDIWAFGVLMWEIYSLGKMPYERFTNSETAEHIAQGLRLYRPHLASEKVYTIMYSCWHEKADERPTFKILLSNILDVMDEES

One may read the DC50 as the concentration giving 50% degradation. One may read the Dmax as the greatest extent of degradation seen. Turning to `Nc1ncnc2c1c(-c1ccc(Oc3ccccc3)cc1)nn2C1CCN(CCN2CCC(CN3CCN(c4ccc(N5CCC(=O)NC5=O)cc4)CC3)C2)CC1` (centres unmarked) [Compound 549, 1-(4-(4-((1-(2-(4-(4-amino-3-(4-phenoxyphenyl)-1H-pyrazolo[3,4-d]pyrimidin-1-yl)piperidin-1-yl)ethyl)pyrrolidin-3-yl)methyl)piperazin-1-yl)phenyl)dihydropyrimidine-2,4(1H,3H)-dione], the IC50 in assay [1] and in assay [3] (MINO) was less than 1000 nM in each case. For the same compound, the 50% degradation concentration (DC50) in assay [2] was less than 10 nM. In assay [2], the Dmax is greater than 90%.

In the case of `Nc1ncnc2c1c(-c1ccc(Oc3ccccc3)cc1)nn2C1CCN(CCCN2CCC(CN3CCC(c4ccc(N5CCC(=O)NC5=O)cc4)CC3)C2)CC1` (centres unmarked) [Compound 550, 1-(4-(1-((1-(3-(4-(4-amino-3-(4-phenoxyphenyl)-1H-pyrazolo[3,4-d]pyrimidin-1-yl)piperidin-1-yl)propyl)pyrrolidin-3-yl)methyl)piperidin-4-yl)phenyl)dihydropyrimidine-2,4(1H,3H)-dione], the IC50 in assay [1] was less than 1000 nM. Moreover, in assay [2], the half-maximal degradation concentration (DC50) is 10 to 50 nM and the greatest degradation seen (Dmax) is greater than 90%. In assay [3] (MINO), the IC50 is less than 1000 nM.

Take `Nc1ncnc2c1c(-c1ccc(Oc3ccccc3)cc1)nn2C1CCN(CCCN2CCC(CN3CCN(c4ccc(N5CCC(=O)NC5=O)cc4)CC3)C2)CC1` (centres unmarked) [Compound 551, 1-(4-(4-((1-(3-(4-(4-amino-3-(4-phenoxyphenyl)-1H-pyrazolo[3,4-d]pyrimidin-1-yl)piperin-1-yl)propyl)pyrrolidin-3-yl)methyl)piperazin-1-yl)phenyl)dihydropyrimidine-2,4(1H,3H)-dione]: the IC50 in assay [1] is less than 1000 nM. Further, in assay [2], the half-maximal degradation concentration (DC50) was in the range of 10 to 50 nM and the Dmax was greater than 90%. Besides, the IC50 in assay [3] (MINO) was less than 1000 nM.

With `Nc1ncnc2c1c(-c1ccc(Oc3ccccc3)cc1)nn2C1CCN(CC2CCN(CC3CCN(c4ccc(N5CCC(=O)NC5=O)cc4)CC3)CC2)CC1` [Compound 552], in assay [1], the IC50 was less than 1000 nM. In addition, in assay [2], the DC50 was less than 10 nM and the maximal degradation (Dmax) was greater than 90%. For the same compound, the IC50 in assay [3] is less than 1000 nM.

Regarding `Nc1ncnc2c1c(-c1ccc(Oc3ccccc3)cc1)nn2C1CCN(CCN2CCC(CN3CCC(c4ccc(N5CCC(=O)NC5=O)cc4)CC3)CC2)CC1` [Compound 553, 1-(4-(1-((1-(2-(4-(4-amino-3-(4-phenoxyphenyl)-1H-pyrazolo[3,4-d]pyrimidin-1-yl)piperidin-1-yl)ethyl)piperidin-4-yl)methyl)piperidin-4-yl)phenyl)dihydropyrimidine-2,4(1H,3H)-dione], the IC50 in assay [1] and in assay [3] was less than 1000 nM throughout. The 50% degradation concentration (DC50) in assay [2] was less than 10 nM. Besides, the Dmax in assay [2] is greater than 90%.

On to `Nc1ncnc2c1c(-c1ccc(Oc3ccccc3)cc1)nn2C1CCN(CCN2CCC(CN3CCN(c4ccc(N5CCC(=O)NC5=O)cc4)CC3)CC2)CC1` [Compound 554, 1-(4-(4-((1-(2-(4-(4-amino-3-(4-phenoxyphenyl)-1H-pyrazolo[3,4-d]pyrimidin-1-yl)piperidin-1-yl)ethyl)piperidin-4-yl)methyl)piperazin-1-yl)phenyl)dihydropyrimidine-2,4(1H,3H)-dione], for which, in assay [1], the IC50 was less than 1000 nM. In addition, in assay [2], the DC50 was less than 10 nM and the Dmax is greater than 90%. Further, the IC50 in assay [3] (MINO) was less than 1000 nM.

Regarding `Nc1ncnc2c1c(-c1ccc(Oc3ccccc3)cc1)nn2C1CCN(CCCN2CCC(CN3CCC(c4ccc(N5CCC(=O)NC5=O)cc4)CC3)CC2)CC1` [Compound 555, 1-(4-(1-((1-(3-(4-(4-amino-3-(4-phenoxyphenyl)-1H-pyrazolo[3,4-d]pyrimidin-1-yl)piperidin-1-yl)propyl)piperidin-4-yl)methyl)piperidin-4-yl)phenyl)dihydropyrimidine-2,4(1H,3H)-dione], the IC50 in assay [1] and in assay [3] (MINO) was less than 1000 nM each time. For the same compound, the DC50 in assay [2] lay in the range of 10 to 50 nM. Also, the Dmax in assay [2] is greater than 90%.

For the compound `Nc1ncnc2c1c(-c1ccc(Oc3ccccc3)cc1)nn2C1CCN(CCCN2CCC(CN3CCN(c4ccc(N5CCC(=O)NC5=O)cc4)CC3)CC2)CC1` [Compound 556, 1-(4-(4-((1-(3-(4-(4-amino-3-(4-phenoxyphenyl)-1H-pyrazolo[3,4-d]pyrimidin-1-yl)piperidin-1-yl)propyl)piperidin-4-yl)methyl)piperazin-1-yl)phenyl)dihydropyrimidine-2,4(1H,3H)-dione], the IC50 in assay [1] was less than 1000 nM. In assay [2], the 50% degradation concentration (DC50) is less than 10 nM and the maximal degradation (Dmax) is greater than 90%. Also, in assay [3] (MINO), the IC50 was less than 1000 nM.

In the case of `Nc1ncnc2c1c(-c1ccc(Oc3ccccc3)cc1)nn2C1CCN(CC2CCN(CC3CCN(c4ccc(NC5CCC(=O)NC5=O)cc4)CC3)CC2)CC1` (centres unmarked) [Compound 557, 3-((4-(4-((4-((4-(4-amino-3-(4-phenoxyphenyl)-1H-pyrazolo[3,4-d]pyrimidin-1-yl)piperidin-1-yl)methyl)piperidin-1-yl)methyl)piperidin-1-yl)phenyl)amino)piperidine-2,6-dione], the IC50 in assay [1] is less than 1000 nM. In addition, in assay [2], the DC50 is less than 10 nM and the maximal degradation (Dmax) is greater than 90%. In assay [3] (MINO), the IC50 is less than 1000 nM.

In the case of `Nc1ncnc2c1c(-c1ccc(Oc3ccccc3)cc1)nn2C1CCN(CCN2CCC(CN3CCN(c4ccc(NC5CCC(=O)NC5=O)cc4)CC3)CC2)CC1` (centres unmarked) [Compound 558, 3-((4-(4-((1-(2-(4-(4-amino-3-(4-phenoxyphenyl)-1H-pyrazolo[3,4-d]pyrimidin-1-yl)piperidin-1-yl)ethyl)piperidin-4-yl)methyl)piperazin-1-yl)phenyl)amino)piperidine-2,6-dione], the IC50 in assay [1] and in assay [3] (MINO) was less than 1000 nM each time. Further, in assay [2], the DC50 is less than 10 nM. Besides, the Dmax in assay [2] is greater than 90%.

Turning to `Nc1ncnc2c1c(-c1ccc(Oc3ccccc3)cc1)nn2C1CCN(CCN2CCC(CC3CCN(c4ccc(NC5CCC(=O)NC5=O)cc4)CC3)CC2)CC1` (centres unmarked) [Compound 559, 3-((4-(4-((1-(2-(4-(4-amino-3-(4-phenoxyphenyl)-1H-pyrazolo[3,4-d]pyrimidin-1-yl)piperidin-1-yl)ethyl)piperidin-4-yl)methyl)piperidin-1-yl)phenyl)amino)piperidine-2,6-dione], the IC50 in assay [1] was less than 1000 nM. Besides, in assay [2], the DC50 is less than 10 nM and the greatest degradation seen (Dmax) was greater than 90%. Moreover, the IC50 in assay [3] (MINO) is less than 1000 nM.

For the compound `Nc1ncnc2c1c(-c1ccc(Oc3ccccc3)cc1)nn2C1CCN(CCCN2CCC(CN3CCN(c4ccc(NC5CCC(=O)NC5=O)cc4)CC3)CC2)CC1` (centres unmarked) [Compound 560, 3-((4-(4-((1-(3-(4-(4-amino-3-(4-phenoxyphenyl)-1H-pyrazolo[3,4-d]pyrimidin-1-yl)piperidin-1-yl)propyl)piperidin-4-yl)methyl)piperazin-1-yl)phenyl)amino)piperidine-2,6-dione], the IC50 in assay [1] is less than 1000 nM. In assay [2], the DC50 is less than 10 nM and the Dmax was greater than 90%. Also, the IC50 in assay [3] (MINO) was less than 1000 nM.

For the compound `Nc1ncnc2c1c(-c1ccc(Oc3ccccc3)cc1)nn2C1CCN(CCCN2CCC(CC3CCN(c4ccc(NC5CCC(=O)NC5=O)cc4)CC3)CC2)CC1` (centres unmarked) [Compound 561, 3-((4-(4-((1-(3-(4-(4-amino-3-(4-phenoxyphenyl)-1H-pyrazolo[3,4-d]pyrimidin-1-yl)piperidin-1-yl)propyl)piperidin-4-yl)methyl)piperidin-1-yl)phenyl)amino)piperidine-2,6-dione], in assay [1], the IC50 was less than 1000 nM. For the same compound, in assay [2], the half-maximal degradation concentration (DC50) is 10 to 50 nM and the maximal degradation (Dmax) was greater than 90%. Besides, in assay [3] (MINO), the IC50 was less than 1000 nM.

In the case of `Nc1ncnc2c1c(-c1ccc(Oc3ccccc3)cc1)nn2C1CCN(CC2CCN(CC3CCN(c4ccc(NC5CCC(=O)NC5=O)cc4)CC3)C2)CC1` (centres unmarked) [Compound 562, 3-((4-(4-((3-((4-(4-amino-3-(4-phenoxyphenyl)-1H-pyrazolo[3,4-d]pyrimidin-1-yl)piperidin-1-yl)methyl)pyrrolidin-1-yl)methyl)piperidin-1-yl)phenyl)amino)piperidine-2,6-dione], the IC50 in assay [1] and in assay [3] (MINO) was 1000 to 10000 nM each time. In assay [2], the DC50 was in the range of 10 to 50 nM. Also, the Dmax in assay [2] is greater than 90%.

On to `Nc1ncnc2c1c(-c1ccc(Oc3ccccc3)cc1)nn2C1CCN(CCN2CCC(CN3CCN(c4ccc(NC5CCC(=O)NC5=O)cc4)CC3)C2)CC1` (centres unmarked) [Compound 563, 3-((4-(4-((1-(2-(4-(4-amino-3-(4-phenoxyphenyl)-1H-pyrazolo[3,4-d]pyrimidin-1-yl)piperidin-1-yl)ethyl)pyrrolidin-3-yl)methyl)piperazin-1-yl)phenyl)amino)piperidine-2,6-dione], for which the IC50 in assay [1] lay in the range of 1000 to 10000 nM. In assay [2], the 50% degradation concentration (DC50) was 10 to 50 nM and the Dmax was greater than 90%. Moreover, the IC50 in assay [3] (MINO) fell in the range of 1000 to 10000 nM.

Regarding `Nc1ncnc2c1c(-c1ccc(Oc3ccccc3)cc1)nn2C1CCN(CCN2CCC(CC3CCN(c4ccc(NC5CCC(=O)NC5=O)cc4)CC3)C2)CC1` (centres unmarked) [Compound 564, 3-((4-(4-((1-(2-(4-(4-amino-3-(4-phenoxyphenyl)-1H-pyrazolo[3,4-d]pyrimidin-1-yl)piperidin-1-yl)ethyl)pyrrolidin-3-yl)methyl)piperidin-1-yl)phenyl)amino)piperidine-2,6-dione], in assay [1], the IC50 was less than 1000 nM. Moreover, in assay [2], the DC50 lay in the range of 10 to 50 nM and the maximal degradation (Dmax) is greater than 90%. Besides, the IC50 in assay [3] (MINO) was less than 1000 nM.

As to `Nc1ncnc2c1c(-c1ccc(Oc3ccccc3)cc1)nn2C1CCN(CCCN2CCC(CN3CCN(c4ccc(NC5CCC(=O)NC5=O)cc4)CC3)C2)CC1` (centres unmarked) [Compound 565, 3-((4-(4-((1-(3-(4-(4-amino-3-(4-phenoxyphenyl)-1H-pyrazolo[3,4-d]pyrimidin-1-yl)piperidin-1-yl)propyl)pyrrolidin-3-yl)methyl)piperazin-1-yl)phenyl)amino)piperidine-2,6-dione], the IC50 in assay [1] is less than 1000 nM. In addition, in assay [2], the 50% degradation concentration (DC50) fell in the range of 10 to 50 nM and the Dmax is greater than 75%. Moreover, the IC50 in assay [3] (MINO) was less than 1000 nM.
